Where two headings read alike, the source gives them in different places.
Tests used:
prothrombin (factor II) = prothrombin (factor II) (Homo sapiens, UniProt P00734); experiment: Prothrombin activation by Echis Carinatus venom (ECV); type: biochemical
Experimental: Prothrombin activation by Echis Carinatus venom (ECV). A reaction mixture of prothrombin (factor II) (0.1 unit/ml, 200 μl), ECV (1 unit/ml, 200 μl), various concentration of peptide (70 μl), 50 μl of 25 mM-CaCl2 and 180 μl of Tris buffer was incubated at 37° C. for 10 min. To 300 μl of the reaction mixture, 60 μl of 4 mM-thrombin substrate and 240 μl of buffer was added and further incubated for 15 min.

Human plasma [1] = experiment: Prothrombin time (PT); type: biochemical
Experimental: Prothrombin time (PT). Human plasma (100 μl) was incubated with 100 μl of each peptide at 37° C. for 3 min., then 100 μl of tissue factor (250 μg/ml) CaCl2 was added and clotting time was measured.

[2] = test system: Pseudomonas aeruginosa F-D Type I LPS; experiment: Inhibition of RNIP-mediated hemagglutination by LPS preparation; type: binding; details: Peptide #36-1 16 μg/ml, RNIP (#197) 25 μg/ml preincubated with LPS 37° 30 minutes
Experimental: (§1) For hemagglutination assays, erythrocytes were sensitized with LPS as follows. One ml of 1% erythrocyte suspension (human 0 type, C3H/HeN mouse or sheep) was mixed with 0.2 ml of LPS solution and incubated at 37° C. for 30 min, followed by washing with phosphate buffered saline (PBS), and then the concentration of suspension was adjusted to 1.0%. In the case of S-LPS, the solution was heated at 100° C. for 1 hour before sensitization of erythrocytes. […] Activity of CAP was expressed as a minimum agglutinating concentration (MAC) of CAP. According to the method of Kirikae et al. (1986) Microbiol. Immunol. 30:269-274, 50 μl of 2-fold serial dilution of Re-LPS was added to 50 μl of 1.0% rabbit erythrocyte suspension, and incubated at 37° C. for 3 hour. Minimum agglutinating concentration of Re-LPS was expressed as 1 HA unit.
(§2) Another series of experiments was performed to determine if the #36-1 and #197 (RNIP) peptides were capable of binding to LPS from various species of Gram-negative bacteria. For these experiments, sheep red blood cells were sensitized with Salmonella minnesota Re-LPS. Peptides #36-1 and #197 (RNIP) were preincubated with various preparations of LPS. Both peptides bind to a diverse group of lipopolysaccharides.
(§3) +Peptide #361 (16 μg/ml) and RNIP (#197) (25 μg/ml) were
(§4) preincubated with each LPS preparation at 37° for 30 minutes, and
(§5) each reaction mixture was added to sheep erythrocytes sensitized with […]

[3] = test system: Salmonella minnesota R595 LPS; experiment: as above; type: binding; details: Peptide #36-1 16 μg/ml, RNIP (#197) 25 μg/ml preincubated with LPS 37° 30 minutes
Experimental: as §1, §2, §3, §4, §5

[4] = test system: Klebsiella pneumoniae LPS; experiment: as above; type: binding; details: Peptide #36-1 16 μg/ml, RNIP (#197) 25 μg/ml preincubated with LPS 37° 30 minutes
Experimental: as §1, §2, §3, §4, §5

E. coli 055:B5 LPS = experiment: as above; type: binding; details: Peptide #36-1 16 μg/ml, RNIP (#197) 25 μg/ml preincubated with LPS 37° 30 minutes
Experimental: as §1, §2, §3, §4, §5

E. coli 0111:B4 LPS = experiment: as above; type: binding; details: Peptide #36-1 16 μg/ml, RNIP (#197) 25 μg/ml preincubated with LPS 37° 30 minutes
Experimental: as §1, §2, §3, §4, §5

E. coli J5 LPS = experiment: as above; type: binding; details: Peptide #36-1 16 μg/ml, RNIP (#197) 25 μg/ml preincubated with LPS 37° 30 minutes
Experimental: as §1, §2, §3, §4, §5

E. coli 0127:B8 LPS = experiment: as above; type: binding; details: Peptide #36-1 16 μg/ml, RNIP (#197) 25 μg/ml preincubated with LPS 37° 30 minutes
Experimental: as §1, §2, §3, §4, §5

factor Xa = biological target: T1, factor Xa (Homo sapiens, UniProt P00742); experiment: Direct Xa inhibition using Xa substrate S2222; type: biochemical; details: concentrations over 10 μg/ml
T1 construct: purchased Sigma Chemical Co., St. Louis, Mo
T1 sequence (P00742 235-488 limits assumed): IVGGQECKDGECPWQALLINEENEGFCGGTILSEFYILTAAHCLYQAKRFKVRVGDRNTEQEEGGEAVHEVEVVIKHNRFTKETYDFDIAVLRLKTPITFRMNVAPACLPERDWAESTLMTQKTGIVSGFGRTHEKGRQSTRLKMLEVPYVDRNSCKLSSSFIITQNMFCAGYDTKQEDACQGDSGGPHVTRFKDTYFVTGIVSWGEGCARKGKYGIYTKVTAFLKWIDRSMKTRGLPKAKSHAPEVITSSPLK
T1 sequence (P00742 41-179 limits assumed): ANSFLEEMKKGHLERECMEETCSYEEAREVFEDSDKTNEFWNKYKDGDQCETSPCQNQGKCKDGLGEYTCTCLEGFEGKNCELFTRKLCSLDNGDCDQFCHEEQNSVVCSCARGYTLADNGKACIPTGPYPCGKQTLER
Source text: Clotting method: Human plasma (Ortho plasma control, Ortho Diagnostic Co.). ATPP reagent(Organo-technika, Tokyo, Japan). Standard tissue factor, rabbit brain thromboplastin (Simplastin, ONO Pharmaceutical, Tokyo, Japan). Purified human factor VII, factor X, factor Xa (Sigma Chemical Co., St. Louis, Mo.). Russell Viper venom (RVV) and Echis Carinatus venom (ECV, Sigma Co.).
Synthetic chromogenic substrate method: Substrate for factor Xa, S2222 (Kabi, Bz-Ile-Glu-Arg-pNA) was used. Substrate for factor II (prothrombin), Boc-Val-Pro-Arg-pNA (Sigma Chemical Co.) was used.

factor X = biological target: T2, factor X (Homo sapiens, UniProt P00742); experiment: Factor X activation by tissue factor and factor VII, synthetic substrate S-2222; type: biochemical
T2 construct: purchased Sigma Chemical Co., St. Louis, Mo
T2 sequence (P00742 183-488): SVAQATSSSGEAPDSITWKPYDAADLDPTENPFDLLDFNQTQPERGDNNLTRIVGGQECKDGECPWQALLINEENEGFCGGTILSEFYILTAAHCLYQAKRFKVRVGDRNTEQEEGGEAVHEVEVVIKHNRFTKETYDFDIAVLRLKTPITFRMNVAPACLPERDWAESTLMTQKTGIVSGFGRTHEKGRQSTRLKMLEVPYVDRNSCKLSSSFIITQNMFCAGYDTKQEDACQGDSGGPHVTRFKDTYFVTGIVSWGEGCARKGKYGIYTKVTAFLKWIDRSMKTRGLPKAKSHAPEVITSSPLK
T2 sequence (P00742 41-179): as the sequence (P00742 41-179 limits assumed) above
Experimental: Factor Xa activity using synthetic substrate. A reaction mixture of factor VII (1 unit/ml, 200 μl), factor X (1 unit/ml, 200 μl), tissue factor (2.5 mg/ml, 50 μl), 25 mM-CaCl2 (50 μl) and 50 μl of several concentration of peptide was incubated at 37° C. for 10 min. To 200 Al of the reaction mixture, 60 μl of 4 mM S-2222, a synthetic substrate for factor Xa, and 340 μl of Tris-HCl buffer, pH 8.2, was added and further incubated for 15 min. The reaction was stopped by adding 60 μl of 50% acetic acid, and OD for p-nitroaniline was read at 405 nm.

[5] = test system: thioglycollate-stimulated murine peritoneal macrophages; experiment: LPS-induced tissue factor generation by macrophages (clotting assay); type: cell-based; details: peptides 1 μg/ml incubated with S. minnesota smooth LPS 5 minutes; 6 hr
Experimental: Tissue factor assay. Salmonella minnesota smooth LPS was incubated with each peptide (1 μg/ml) for 5 min., then the mixture was added to peritoneal murine macrophages obtained 4 days after thioglycollate stimulation. Cells were cultured for 6 hours prior to assay of tissue factor by clotting assay.
Various concentrations of Salmonella minnesota smooth LPS were incubated with each peptide (197 (RNIP), 36-1, 32-1, and 50-2) at 37° C. for 5 minutes prior to mixing with thioglycollate-stimulated murine peritoneal macrophages. Production of tissue factor after 6 hr. was measured by clotting assay. […] In the absence of LPS no tissue factor is synthesized by these cells.

[6] = test system: Salmonella minnesota ReLPS sensitized sheep erythrocytes; experiment: LPS hemagglutination assay (MAC); type: binding
Experimental: as §1

RAW 264.7 cells = experiment: LPS- or IFNγ-induced reactive nitrogen intermediate (RNI) production, Griess nitrite assay; type: cell-based, murine
Experimental: From the sequence of the CAP18 cDNA, it was apparent that the putative N-terminal peptide of CAP18 was in fact an internal fragment of the CAP18 protein. We therefore tried to reconfirm the original protein sequence. Neutrophil-derived heparin bound cationic proteins were prepared as described above and applied to a C18 reverse phase HPLC (FIG. 1). We sequenced the major peaks. Peaks at fractions 14.5 and 15.2 correspond to defensins MCP1 and MCP2 (Territo et al. (1989) J. Clin. Invest. 84:2017-2019), respectively. Fraction 25.8 is macrophage related protein 14 (MRP14) (Odink et al. (1987) Nature 330:80-82). The fraction at 20.3 minutes corresponds to a fragment of CAP18 of approximately 4-5 kD. […] The murine macrophage cell line RAW 264.7 (obtained from ATCC) and thioglycollate-elicited murine peritoneal exudate cells are used to produce RNI. Cells are cultured at 1×10^6 /ml. in RPMI-1640 +2.5% FCS in 24 well plates in the presence or absence of different concentrations of LPS or murine rlFNγ. After 24 hr. incubation at 37° C., the cell free supernatant is collected and tested for the presence of RNI. Accumulation of nitrite in the medium is measured by a calorimetric assay based on the Griess reaction (Green et al. (1982) Anal. Biochem. 126:11) using sodium nitrite as standards. Sample (50 μl) is mixed with 50 μl of Griess reagent (1% sulfanilamide, 0.1% naphthalene diamine dihydrochloride, 2.5% H3 PO4) and after 10 min. at room temperature absorbance is read at 570 nm.

Human plasma [7] = experiment: Partial thromboplastin time (PTT); type: biochemical; details: dose dependent
Experimental: Partial thromboplastin time (PTT). Human plasma (100 μl) was incubated with each peptide (100 μl) at 37° C. for 3 min., then 100 μl of CaCl2 containing phospholipid was added and clotting time was measured.

coagulation = experiment: Anti-coagulant activity of human RNIP (preliminary studies); type: biochemical

| Substance | inhibition of Echis carinatus venom activation of purified factor II to IIa (in words) (prothrombin (factor II)) | inhibition of the prothrombin time (PT), in words (Human plasma [1]) | MIC, minimal inhibitory concentration of LPS [2] [µg/mL] | MIC, minimal inhibitory concentration of LPS [3] [µg/mL] | MIC, minimal inhibitory concentration of LPS [4] [µg/mL] | MIC, minimal inhibitory concentration of LPS (E. coli 055:B5 LPS) [µg/mL] | MIC, minimal inhibitory concentration of LPS (E. coli 0111:B4 LPS) [µg/mL] | MIC, minimal inhibitory concentration of LPS (E. coli J5 LPS) [µg/mL] | MIC, minimal inhibitory concentration of LPS (E. coli 0127:B8 LPS) [µg/mL] | direct Xa inhibition (in words) (factor Xa) | IC50, Tissue factor VII, X to Xa (factor X; synthetic substrate) [µg/mL] | IC50 (factor X; text value for both peptides, read-out: IC50, factor X activated by tissue factor and purified factor VII) [nM] | inhibition of LPS induced tissue factor (in words) [5] | Hemagglutination [MAC], minimum agglutinating concentration [6] [µg/mL] | concentrations at which peptides are active in the bioassay (RAW 264.7 cells; day-to-day variation in the bioassay) [nM] | inhibition of LPS-induced RNI production (in words) (RAW 264.7 cells; macrophages / RAW 264.7 cells) | inhibition of the partial thromboplastin time (PTT), in words (Human plasma [7]) | anti-coagulant activity (in words) (coagulation) | anti-coagulant activity (in words) (coagulation; listed as Human RNIP) |
| --- | --- | --- | --- | --- | --- | --- | --- | --- | --- | --- | --- | --- | --- | --- | --- | --- | --- | --- | --- |
| 36-1: synthetic rabbit RNIP fragment, amino acids 135-166 of SEQ ID NO:4 (GLRKRLRKFRNKIKEKLKKIGQKIQGLLPKLA) [Peptide 36-1] | inhibited | inhibited | 3.9 | 15.6 | 31.3 | 15.6 | 15.6 | 7.8 | 15.6 | No evidence of direct Xa inhibition | 0.3 to 0.7 | 40 to 100 | inhibition | 3.9 | 10 to 50 | active | inhibited | – | – |
| human RNIP: synthetic polypeptide comprising amino acids 134 to 170 of SEQ ID NO:2 (LLGDFFRKSKEKIGKEFKRIVQRIKDFLRNLVPRTES) | – | – | – | – | – | – | – | – | – | – | – | – | – | – | – | – | – | lacks significant anti-coagulant activity | free from anti-coagulant activity |
